One assay has as its target CRBN-DDB1 (Homo sapiens, UniProt Q96SW2). Briefly: Compound binding to CRBN by HTRF assay. The conditions noted are these: CRBN-DDB1 2.5 nM, Cy5-Thalidomide 100 nM, 30 min at ambient temperature; read-out: HTRF Class (Cereblon binding, HTRF IC50). The gist of the method: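 Cy5-thalidomide (100 nM) displacement from His-tagged CRBN-DDB1 (2.5 nM) read by terbium-cryptate HTRF (665/620 nm), in 20 mM HEPES, 20 mM NaCl, 0.2 mM TCEP, 0.2 mM EDTA, 0.005% Tween20. Compounds tested as 10-point 1:3 series, 30 min at ambient temperature. Signal normalised to DMSO and lenalidomide controls; IC50 fitted, Ki by Cheng-Prusoff.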
A general note: TR-FRET usually uses a lanthanide donor and a delayed reading to cut background.

The next assay deals with T1, GSPT1 (Homo sapiens, UniProt P15170+Q96SW2).
T1 construct: CAL-51 cells were purchased from DSMZ (cat. Number ACC302); host or cells: CAL-51
T1 sequence (P15170 whole entry): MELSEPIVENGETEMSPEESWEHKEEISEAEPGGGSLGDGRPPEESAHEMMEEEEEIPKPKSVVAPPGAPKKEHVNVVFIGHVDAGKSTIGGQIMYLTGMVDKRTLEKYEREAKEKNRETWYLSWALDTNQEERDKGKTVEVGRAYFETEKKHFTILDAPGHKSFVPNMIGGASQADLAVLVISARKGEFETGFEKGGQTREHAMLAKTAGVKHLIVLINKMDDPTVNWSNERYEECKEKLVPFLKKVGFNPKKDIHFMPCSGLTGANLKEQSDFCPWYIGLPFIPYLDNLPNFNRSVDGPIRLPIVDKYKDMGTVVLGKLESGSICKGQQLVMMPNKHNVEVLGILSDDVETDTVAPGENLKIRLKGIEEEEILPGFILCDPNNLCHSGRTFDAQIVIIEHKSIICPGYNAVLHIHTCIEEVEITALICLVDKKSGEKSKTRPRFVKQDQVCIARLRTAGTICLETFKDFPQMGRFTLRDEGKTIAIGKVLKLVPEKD
T1 sequence (Q96SW2 whole entry): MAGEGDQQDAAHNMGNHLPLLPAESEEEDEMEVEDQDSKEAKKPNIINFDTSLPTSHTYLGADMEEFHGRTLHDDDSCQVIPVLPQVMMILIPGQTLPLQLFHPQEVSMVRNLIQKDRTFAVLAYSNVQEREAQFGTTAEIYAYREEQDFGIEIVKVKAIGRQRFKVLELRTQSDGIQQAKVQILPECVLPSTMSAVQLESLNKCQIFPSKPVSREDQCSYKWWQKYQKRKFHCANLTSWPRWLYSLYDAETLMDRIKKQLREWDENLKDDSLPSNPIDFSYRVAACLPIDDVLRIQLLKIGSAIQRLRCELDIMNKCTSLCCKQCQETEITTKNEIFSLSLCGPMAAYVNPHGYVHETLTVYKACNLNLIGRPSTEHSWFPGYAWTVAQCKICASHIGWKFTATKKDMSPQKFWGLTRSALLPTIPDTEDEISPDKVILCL
T1 sequence (Q16531 2-1140 partner limits assumed): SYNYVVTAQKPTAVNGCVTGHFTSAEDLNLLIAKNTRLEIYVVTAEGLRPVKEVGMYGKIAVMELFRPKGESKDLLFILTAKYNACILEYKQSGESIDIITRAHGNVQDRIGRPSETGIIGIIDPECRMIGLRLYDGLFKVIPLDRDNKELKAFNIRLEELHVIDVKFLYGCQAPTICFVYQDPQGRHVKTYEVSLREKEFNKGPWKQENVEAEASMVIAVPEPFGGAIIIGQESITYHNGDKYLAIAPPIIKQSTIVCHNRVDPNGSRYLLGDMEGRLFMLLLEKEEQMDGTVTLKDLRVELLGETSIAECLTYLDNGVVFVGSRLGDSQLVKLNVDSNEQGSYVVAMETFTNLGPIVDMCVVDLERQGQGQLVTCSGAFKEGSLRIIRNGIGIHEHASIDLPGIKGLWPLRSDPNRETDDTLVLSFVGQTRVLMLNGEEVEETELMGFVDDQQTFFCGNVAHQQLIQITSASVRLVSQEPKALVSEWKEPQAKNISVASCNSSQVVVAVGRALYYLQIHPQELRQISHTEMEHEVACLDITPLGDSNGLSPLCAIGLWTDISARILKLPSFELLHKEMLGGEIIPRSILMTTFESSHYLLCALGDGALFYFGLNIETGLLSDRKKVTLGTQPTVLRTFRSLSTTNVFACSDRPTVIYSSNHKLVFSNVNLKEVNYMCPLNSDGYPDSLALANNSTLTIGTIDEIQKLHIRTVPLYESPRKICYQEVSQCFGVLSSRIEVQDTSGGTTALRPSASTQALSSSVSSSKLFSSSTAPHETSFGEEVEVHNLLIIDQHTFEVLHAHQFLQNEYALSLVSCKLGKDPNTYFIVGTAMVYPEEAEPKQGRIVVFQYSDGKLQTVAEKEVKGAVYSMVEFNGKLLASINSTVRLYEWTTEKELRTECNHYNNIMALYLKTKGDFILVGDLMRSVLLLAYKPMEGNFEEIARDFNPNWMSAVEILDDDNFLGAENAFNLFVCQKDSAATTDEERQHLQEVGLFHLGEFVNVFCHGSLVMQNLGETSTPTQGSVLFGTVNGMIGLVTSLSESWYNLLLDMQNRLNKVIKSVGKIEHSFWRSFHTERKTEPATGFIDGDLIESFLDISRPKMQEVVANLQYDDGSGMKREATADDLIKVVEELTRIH
Briefly: Immunofluorescence assay for activity to degrade GSPT1 in CAL-51 cells. The assay is classed as cell-based. The conditions noted are these: 6 h treatment, read-out: IF Class (GSPT1 degradation, DC50). Summed up:
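CAL-51 cells treated 6 h with compound (30 μM to 0.1 nM), fixed, immunostained for GSPT1 with DAPI and phalloidin counterstains, imaged by high-content microscopy. Mean per-cell GSPT1 intensity normalized to controls; DC50 by non-linear regression.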

As a reminder, the IC50 is the concentration that gives 50% inhibition. What is called DC50 is the midpoint of the concentration-degradation curve.

Molecules are shown by their SMILES.

CRBN-DDB1, sequence (Q96SW2 whole entry): as the sequence (Q96SW2 whole entry) above
CRBN-DDB1, sequence (Q16531 whole entry partner): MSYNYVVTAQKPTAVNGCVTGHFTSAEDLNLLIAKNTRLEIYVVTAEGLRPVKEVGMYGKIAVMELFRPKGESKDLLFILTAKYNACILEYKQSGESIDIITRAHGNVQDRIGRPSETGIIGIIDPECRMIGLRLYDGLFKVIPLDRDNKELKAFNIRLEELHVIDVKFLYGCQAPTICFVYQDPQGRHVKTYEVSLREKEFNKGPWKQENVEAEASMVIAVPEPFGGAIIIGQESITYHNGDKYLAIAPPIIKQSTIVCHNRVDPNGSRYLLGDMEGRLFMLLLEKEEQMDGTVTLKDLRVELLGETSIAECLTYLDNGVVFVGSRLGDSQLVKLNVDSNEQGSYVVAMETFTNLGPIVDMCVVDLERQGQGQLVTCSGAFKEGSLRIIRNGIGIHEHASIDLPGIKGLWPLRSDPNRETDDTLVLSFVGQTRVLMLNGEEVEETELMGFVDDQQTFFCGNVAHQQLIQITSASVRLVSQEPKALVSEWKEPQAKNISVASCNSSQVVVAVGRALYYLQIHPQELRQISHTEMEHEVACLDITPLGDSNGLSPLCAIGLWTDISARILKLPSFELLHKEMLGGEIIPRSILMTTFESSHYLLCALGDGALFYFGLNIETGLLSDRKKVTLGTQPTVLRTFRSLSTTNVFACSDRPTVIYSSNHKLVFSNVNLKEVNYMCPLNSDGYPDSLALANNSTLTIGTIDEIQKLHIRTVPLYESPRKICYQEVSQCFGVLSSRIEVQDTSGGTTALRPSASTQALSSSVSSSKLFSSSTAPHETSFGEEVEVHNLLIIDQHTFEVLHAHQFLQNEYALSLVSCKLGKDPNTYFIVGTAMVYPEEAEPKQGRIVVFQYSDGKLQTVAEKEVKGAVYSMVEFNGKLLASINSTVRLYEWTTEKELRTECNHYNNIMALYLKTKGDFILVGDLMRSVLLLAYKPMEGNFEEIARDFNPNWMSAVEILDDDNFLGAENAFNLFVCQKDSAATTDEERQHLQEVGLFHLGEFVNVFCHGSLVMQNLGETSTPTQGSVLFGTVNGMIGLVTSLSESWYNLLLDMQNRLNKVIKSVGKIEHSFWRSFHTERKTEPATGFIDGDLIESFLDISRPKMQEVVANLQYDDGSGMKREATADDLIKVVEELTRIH

On to `CC(C)(C)N1CC(NC(=O)OC2CN(c3cc(F)c(C4CCC(=O)NC4=O)c(F)c3)C2)C1` (stereo not drawn) [Compound 126, 1-(4-(2,6-dioxopiperidin-3-yl)-3,5-difluorophenyl)azetidin-3-yl(1-(tert-butyl)azetidin-3-yl)carbamate], for which the IC50 at CRBN-DDB1 is at most 0.1 µM. Further, the DC50 at GSPT1 is above 0.3 µM.
The like results for `C[C@@H]1CCCN1c1ccc(NC(=O)OC2CN(c3cc(F)c(C4CCC(=O)NC4=O)c(F)c3)C2)cn1` (stereo partly drawn) [Compound 10, 1-(4-(2,6-dioxopiperidin-3-yl)-3,5-difluorophenyl)azetidin-3-yl (6-((R)-2-methylpyrrolidin-1-yl)pyridin-3-yl)carbamate] were, in that order, at most 0.1 µM and at most 0.03 µM.
The corresponding values for `C[C@H](NC(=O)OC1CN(c2cc(F)c(C3CCC(=O)NC3=O)c(F)c2)C1)c1ccccc1` (stereo partly drawn) [Compound 130, 1-(4-(2,6-dioxopiperidin-3-yl)-3,5-difluorophenyl)azetidin-3-yl((S)-1-phenylethyl) carbamate] are 0.1 to 1 µM and above 0.3 µM.
The corresponding values for `COC(=O)C12CC(NC(=O)OC3CN(c4cc(F)c(C5CCC(=O)NC5=O)c(F)c4)C3)(C1)C2` (stereo not drawn) [Compound 75, methyl 3-((((1-(4-(2,6-dioxopiperidin-3-yl)-3,5-difluorophenyl)azetidin-3-yl)oxy)carbonyl)amino)bicyclo[1.1.1]pentane-1-carboxylate] are 0.1 to 1 µM and 0.03 to 0.3 µM.
As for `Cc1cc(C)cc(NC(=O)NC2CN(c3ccc(C4CCC(=O)NC4=O)cc3)C2)c1` (stereo not drawn) [Compound 67, 1-(3,5-dimethylphenyl)-3-(1-(4-(2,6-dioxopiperidin-3-yl)phenyl)azetidin-3-yl)urea], the IC50 on CRBN-DDB1 is 0.1 to 1 µM. Also, on GSPT1, the DC50 lay within 0.03 to 0.3 µM.
In the case of `COc1c(N2CC(OC(=O)Nc3ccc(C)c(Cl)c3)C2)cc(F)c(C2CCC(=O)NC2=O)c1F` (stereo not drawn) [Compound 46, 1-(4-(2,6-dioxopiperidin-3-yl)-3,5-difluoro-2-methoxyphenyl)azetidin-3-yl (3-chloro-4-methylphenyl) carbamate], the IC50 at CRBN-DDB1 lay in the range of 0.1 to 1 µM. Also, the DC50 at GSPT1 fell in the range of 0.03 to 0.3 µM.
With `C[C@@H](NC(=O)OC1CN(c2cc(F)c(C3CCC(=O)NC3=O)c(F)c2)C1)c1ccccc1` (stereo partly drawn) [Compound 123, 1-(4-(2,6-dioxopiperidin-3-yl)-3,5-difluorophenyl)azetidin-3-yl((R)-1-phenylethyl)carbamate], on CRBN-DDB1, the IC50 was at most 0.1 µM. The DC50 on GSPT1 is at most 0.03 µM.
The like results for `O=C1CCC(c2c(F)cc(N3CC(OC(=O)Nc4cnc(-c5ccccc5)nc4)C3)cc2F)C(=O)N1` (stereo not drawn) [Compound 51, 1-(4-(2,6-dioxopiperidin-3-yl)-3,5-difluorophenyl)azetidin-3-yl(2-phenylpyrimidin-5-yl)carbamate] were, in that order, 0.1 to 1 µM and at most 0.03 µM.
As to `O=C1CCC(c2c(F)cc(N3CC(OC(=O)NC45CC(N6CCOCC6)(C4)C5)C3)cc2F)C(=O)N1` (stereo not drawn) [Compound 71, 1-(4-(2,6-dioxopiperidin-3-yl)-3,5-difluorophenyl)azetidin-3-yl(3-morpholinobicyclo [1.1.1]pentan-1-yl) carbamate], the IC50 on CRBN-DDB1 was 0.1 to 1 µM. For the same compound, the DC50 on GSPT1 is above 0.3 µM.
As for `Cc1cc(NC(=O)OC2CN(c3cc(F)c(C4CCC(=O)NC4=O)c(F)c3)C2)cc(C)c1C#N` (stereo not drawn) [Compound 48, 1-(4-(2,6-dioxopiperidin-3-yl)-3,5-difluorophenyl)azetidin-3-yl (4-cyano-3,5-dimethylphenyl) carbamate], the IC50 on CRBN-DDB1 is 0.1 to 1 µM. On GSPT1, the DC50 was at most 0.03 µM.
The like results for `O=C1CCC(c2ccc(N3CC(NC(=O)Nc4cc(OC(F)(F)F)ccn4)C3)cc2)C(=O)N1` (stereo not drawn) [Compound 74, 1-(1-(4-(2,6-dioxopiperidin-3-yl)phenyl)azetidin-3-yl)-3-(4-(trifluoromethoxy)pyridin-2-yl)urea] were, in that order, 0.1 to 1 µM and above 0.3 µM.
With `Cc1ccc(NC(=O)NC2CN(c3ccc(C4CCC(=O)NC4=O)cc3)C2)cc1Cl` (stereo not drawn) [Compound 66, 1-(3-chloro-4-methylphenyl)-3-(1-(4-(2,6-dioxopiperidin-3-yl)phenyl)azetidin-3-yl)urea], the IC50 at CRBN-DDB1 lay within 0.1 to 1 µM. At GSPT1, the 50% degradation concentration (DC50) is 0.03 to 0.3 µM.
The corresponding values for `Cc1cc(C#N)cc(NC(=O)OC2CN(c3cc(F)c(C4CCC(=O)NC4=O)c(F)c3)C2)c1` (stereo not drawn) [Compound 49, 1-(4-(2,6-dioxopiperidin-3-yl)-3,5-difluorophenyl)azetidin-3-yl (3-cyano-5-methylphenyl) carbamate] are 0.1 to 1 µM and 0.03 to 0.3 µM.
As for `O=C1CCC(c2c(F)cc(N3CC(NC(=O)Nc4cc(F)cc(OC(F)F)c4)C3)cc2F)C(=O)N1` (stereo not drawn) [Compound 22, 1-(3-(difluoromethoxy)-5-fluorophenyl)-3-(1-(4-(2,6-dioxopiperidin-3-yl)-3,5-difluorophenyl)azetidin-3-yl)urea], at CRBN-DDB1, the IC50 was in the range of 0.1 to 1 µM. For the same compound, the DC50 at GSPT1 is 0.03 to 0.3 µM.
The corresponding values for `O=C1CCC(c2c(F)cc(N3CC(OC(=O)Nc4cccc(OC5CC5)c4)C3)cc2F)C(=O)N1` (stereo not drawn) [Compound 37, 1-(4-(2,6-dioxopiperidin-3-yl)-3,5-difluorophenyl)azetidin-3-yl (3-cyclopropoxyphenyl)carbamate] are 0.1 to 1 µM and at most 0.03 µM.
The like results for `COc1cc(C)c(Cl)cc1NC(=O)NC1CN(c2ccc(C3CCC(=O)NC3=O)cc2)C1` (stereo not drawn) [Compound 72, 1-(5-chloro-2-methoxy-4-methylphenyl)-3-(1-(4-(2,6-dioxopiperidin-3-yl)phenyl)azetidin-3-yl)urea] were, in that order, above 1 µM and 0.03 to 0.3 µM.
Consider `O=C1CCC(c2c(F)cc(N3CC(OC(=O)N[C@@H]4CC5CCC4C5)C3)cc2F)C(=O)N1` (stereo partly drawn) [Compound 140, 1-(4-(2,6-dioxopiperidin-3-yl)-3,5-difluorophenyl)azetidin-3-yl(2R)-bicyclo[2.2.1]heptan-2-ylcarbamate], for which the IC50 at CRBN-DDB1 was at most 0.1 µM. For the same compound, the DC50 at GSPT1 was 0.03 to 0.3 µM.
The like results for `O=C1CCC(c2c(F)cc(N3CC(OC(=O)Nc4cc(F)cc(OC(F)F)c4)C3)cc2F)C(=O)N1` (stereo not drawn) [Compound 44, 1-(4-(2,6-dioxopiperidin-3-yl)-3,5-difluorophenyl)azetidin-3-yl (3-(difluoromethoxy)-5-fluorophenyl)carbamate] were, in that order, 0.1 to 1 µM and 0.03 to 0.3 µM.
The like results for `CC(C)CCNC(=O)OC1CN(c2cc(F)c(C3CCC(=O)NC3=O)c(F)c2)C1` (stereo not drawn) [Compound 125, 1-(4-(2,6-dioxopiperidin-3-yl)-3,5-difluorophenyl)azetidin-3-yl isopentylcarbamate] were, in that order, 0.1 to 1 µM and at most 0.03 µM.
The corresponding values for `O=C1CCC(c2c(F)cc(N3CC(OC(=O)Nc4cccc(OC(F)(F)F)c4)C3)cc2F)C(=O)N1` (stereo not drawn) [Compound 3, 1-(4-(2,6-dioxopiperidin-3-yl)-3,5-difluorophenyl)azetidin-3-yl(3-(trifluoromethoxy)phenyl) carbamate] are 0.1 to 1 µM and at most 0.03 µM.
As for `Cc1c(Cl)cc(NC(=O)NC2CN(c3cc(F)c(C4CCC(=O)NC4=O)c(F)c3)C2)cc1CN1CCOCC1` (stereo not drawn) [Compound 24, 1-(3-chloro-4-methyl-5-(morpholinomethyl)phenyl)-3-(1-(4-(2,6-dioxopiperidin-3-yl)-3,5-difluorophenyl)azetidin-3-yl) urea], on CRBN-DDB1, the IC50 is at most 0.1 µM. For the same compound, the DC50 at GSPT1 was at most 0.03 µM.
The like results for `O=C1CCC(c2ccc(N3CC(OC(=O)Nc4cccc(OC(F)(F)F)c4)C3)cc2Cl)C(=O)N1` (stereo not drawn) [Compound 36, 1-(3-chloro-4-(2,6-dioxopiperidin-3-yl)phenyl)azetidin-3-yl (3-(trifluoromethoxy)phenyl)carbamate] were, in that order, above 1 µM and 0.03 to 0.3 µM.
The like results for `Cc1ccc(NC(=O)NC2CN(c3ccc(C4CCC(=O)NC4=O)c(F)c3)C2)cc1Cl` (stereo not drawn) [Compound 7, 1-(3-chloro-4-methylphenyl)-3-(1-(4-(2,6-dioxopiperidin-3-yl)-3-fluorophenyl)azetidin-3-yl)urea] were, in that order, 0.1 to 1 µM and 0.03 to 0.3 µM.
Consider `O=C1CCC(c2ccc(N3CC(NC(=O)Nc4cccc(OC(F)(F)F)c4)C3)cc2Cl)C(=O)N1` (stereo not drawn) [Compound 41, 1-(1-(3-chloro-4-(2,6-dioxopiperidin-3-yl)phenyl)azetidin-3-yl)-3-(3-(trifluoromethoxy)phenyl)urea], for which the IC50 at CRBN-DDB1 was 0.1 to 1 µM. Also, on GSPT1, the DC50 was above 0.3 µM.
With `CC1(c2ccc(NC(=O)OC3CN(c4cc(F)c(C5CCC(=O)NC5=O)c(F)c4)C3)cc2)CC1` (stereo not drawn) [Compound 58, 1-(4-(2,6-dioxopiperidin-3-yl)-3,5-difluorophenyl)azetidin-3-yl (4-(1-methylcyclopropyl)phenyl)carbamate], at CRBN-DDB1, the IC50 fell in the range of 0.1 to 1 µM. Moreover, at GSPT1, the DC50 fell in the range of 0.03 to 0.3 µM.
Take `Cc1ccc(NC(=O)NC2CN(c3ccc(C4CCC(=O)NC4=O)c(Cl)c3)C2)cc1Cl` (stereo not drawn) [Compound 42, 1-(1-(3-chloro-4-(2,6-dioxopiperidin-3-yl)phenyl)azetidin-3-yl)-3-(3-chloro-4-methylphenyl)urea]: at CRBN-DDB1, the concentration for half-maximal inhibition (IC50) was in the range of 0.1 to 1 µM. For the same compound, the DC50 on GSPT1 was 0.03 to 0.3 µM.
Regarding `O=C1CCC(c2c(F)cc(N3CC(OC(=O)NC4CCCCCC4)C3)cc2F)C(=O)N1` (stereo not drawn) [Compound 134, 1-(4-(2,6-dioxopiperidin-3-yl)-3,5-difluorophenyl)azetidin-3-yl cycloheptylcarbamate], the IC50 on CRBN-DDB1 is at most 0.1 µM. Besides, the DC50 on GSPT1 is at most 0.03 µM.
